The test system of data set [1] is γ-glutamyl transpeptidase (GGT). The data set is described as follows: γ-Glutamyl transpeptidase (GGT) enzyme recognition test. It counts as biochemical. The settings on record: 37° C. As for the experimental part:
To 0.150 mL of this doxorubicin-bonded glutamic acid derivative (prodrug) PBS solution, 0.150 mL of a 2 U/mL GGT solution obtained by dissolving GGT (0.22 mg, 8 U/mg) (Sigma-Aldrich Company) in PBS (0.880 mL) was added, and the mixture was allowed to react at 37° C.
The reaction liquid was analyzed by HPLC, and thus the residual ratio of the doxorubicin-bonded glutamic acid derivative (prodrug) and the production ratio of doxorubicin were determined.
To 0.100 mL of the doxorubicin-bonded glutamic acid derivative PBS solution, 0.100 mL of a 2 U/mL GGT solution obtained by dissolving GGT (0.38 mg, 8 U/mg) (Sigma-Aldrich Company) in PBS (1.520 mL) was added, and the mixture was allowed to react at 37° C. […]

The subject of data set [2] is OS-RC-2 cells having high GGT activity. Description: cells. The data set is classed as cell-based, human. The note with it: OS-RC-2 cells, 6 hours exposure then 3 days incubation. The method, then: (§1) After the cells were incubated for 6 hours, the interior of the wells was washed, and after the cells were further incubated for 3 days, the cells were immobilized with methanol and stained using Methylene Blue dye. After staining, the dye was extracted with a 0.3% aqueous solution of hydrochloric acid was extracted, and the light absorbance at 660 nm was measured. For the light absorbance thus obtained, the cell proliferation suppressive activity was evaluated based on the reduction ratio for the light absorbance measured from cells to which the compound was not added.
(§2) By a similar operation, the cell proliferation suppressive activity was evaluated from the light absorbance, using doxorubicin that was not converted to a glutamic acid derivative. The results are shown in FIG. 1 (OS-RC-2 cells having high GGT activity) and FIG. 2 (SK-OV-3 cells having low GGT activity).
(§3) The cell proliferation inhibitory activity of the EHC-bonded glutamic acid derivative according to Synthesis Example 6 was evaluated using OS-RC-2 cells (RIKEN BioResource Center), which are known to have high GGT activity, and SK-OV-3 cells (American Type Culture Collection), which are known to have low GGT activity.
(§4) On a 96-well plate, OS-RC-2 cells having high GGT activity and SK-OV-3 cells having low GGT activity were each inoculated in an amount of 4,000 cells/well and were incubated for one day at 37° C. and 5% CO2, and then the EHC prodrug according to Synthesis Example 6 was added to the cells at a final concentration of 0.0001 to 1 μM. After the cells were incubated for 6 hours, the interior of the wells was washed, and the cells were further incubated for 3 days. After the incubation, the cells were immobilized with methanol and were stained using Methylene Blue dye. After staining, the dye was extracted with a 0.3% aqueous solution of hydrochloric acid, and the light absorbance at 660 nm was measured. The cell proliferation suppressive activity was evaluated based on the reduction ratio for the light absorbance thus obtained, with respect to the light absorbance measured from cells to which the compound was not added.
(§5) By a similar operation, EHC, which was an active ingredient of Synthesis Example 6, was used without modification, and the cell proliferation suppressive activity was evaluated from the light absorbance.

Data set [3] has the same test system. The data set is classed as cell-based, human. The note with it: GGsTop 10 μM. As for the experimental part: OS-RC-2 cells were inoculated by a method similar to that of Test Example 3. […] After the cells were incubated for 6 hours, the interior of the wells was washed, and after the cells were further incubated for 3 days, the cell proliferation suppressive activity was evaluated by a method similar to that of Test Example 3.
By a similar operation, the cell proliferation suppressive activity was evaluated using doxorubicin that was not glutamic acid-derivatized, from the light absorbance of the compound.
The GGT activity dependency of the cell proliferation inhibitory activity of the EHC-bonded glutamic acid derivative according to Synthesis Example 6 was evaluated using OS-RC-2 cells having high GGT activity.
OS-RC-2 cells were inoculated by a method similar to that of Test Example 10. After the cells were incubated for one day, GGsTop (Wako Pure Chemical Industries, Ltd.), which is a GGT inhibitor, was added to the cells at a final concentration of 10 μM, and the cells were incubated for one hour. Subsequently, the EHC-bonded glutamic acid derivative according to Synthesis Example 6 was added to the cells at a final concentration of 0.0001 to 1 μM. After the cells were incubated for 6 hours, the interior of the wells was washed, and after the cells were incubated for 3 days, the cell proliferation suppressive activity was evaluated by a method similar to that of Test Example 10.
By a similar operation, the cell proliferation suppressive activity was evaluated using EHC, which is the active ingredient of Synthesis Example 6, from the light absorbance of the compound.

Data set [4] deals with SK-OV-3 cells having low GGT activity. Description: cells. It counts as cell-based. The settings on record: SK-OV-3 cells, 6 hours exposure then 3 days incubation. The method, then: as §1, §2, §3, §4, §5
Data set [5] in a line: Phosphate buffered physiological saline (PBS) solution stability test. The note with it: PBS (DMSO stock), 37° C. The data set is classed as physicochemical. As for the experimental part: 0.148 mL of the doxorubicin-bonded glutamic acid derivative PBS solution was dissolved in 0.148 mL of a PBS solution, and the solution was allowed to react at 37° C.
PBS (0.100 mL) was added to the EHC-bonded glutamic acid derivative solution (0.100 mL), and the mixture was allowed to react at 37° C. The reaction liquid was analyzed by HPLC, and thereby the residual ratio of the EHC-bonded glutamic acid derivative was determined.
PBS (0.117 mL) was added to the camptothecin-bonded glutamic acid derivative solution (0.117 mL), and the mixture was allowed to react at 37° C. The reaction liquid was analyzed by HPLC, and thereby the residual ratio of the glutamic acid derivative was determined.
The reaction liquid was analyzed by HPLC, and thereby the residual ratio of the EHC-bonded glutamic acid derivative was determined.

In data set [6] the test system is human ovarian cancer SHIN-3 tumors. Description: Test on antitumor effect of Synthesis Example 1, SHIN-3 tumors. The settings on record: 5 mg/kg i.v., at an interval of 7 days. The data set is classed as in vivo. As for the experimental part:
By an operation similar to that of Test Example 12, human ovarian cancer SHIN-3 tumors were subcutaneously transplanted into SCID mice, and tumor engraftment was confirmed.
After the administration, the major axis (L) and the minor axis (W) of a tumor were measured using calipers at an interval of 2 to 3 days, the tumor volume was calculated by the formula: (L×W^2)/2, and the tumor volume change rate from the administration initiation day was determined.

Where [7] appears, read: after 6 hours, 2 mM PBS solution + 2 U/mL GGT solution.
Where [8] appears, read: Homo sapiens, 10 μM, read-out: Cell proliferation inhibitory activity.

Structures can show the parent of a compound that is named as a salt. Where two headings read alike, the source gives them in different places.

The source of these data is patent US20200190101A1, “Composition Containing Novel Glutamic Acid Derivative And Block Copolymer, And Use Thereof” (Nippon Kayaku Kabushiki Kaisha, priority 2015, published 2020).

For the molecule `COc1cccc2c1C(=O)c1c(O)c3c(c(O)c1C2=O)C[C@@](O)(C(=O)CO)C[C@@H]3O[C@H]1C[C@H](NC(=O)CC[C@H](N)C(=O)O)[C@H](O)[C@H](C)O1` [Comparative Example 1, (S)-(4-amino-4-carboxybutanamido)doxorubicin, reference compound], the “Residual ratio of the glutamic acid derivative” value in data set [1] (setting [7]) amounted to 93%. As to `CC[C@@]1(O)C(=O)OCc2c1cc1n(c2=O)Cc2cc3c(NC(=O)CC[C@H](N)C(=O)O)cccc3nc2-1` [Comparative Example 2, 9-((S)-4-amino-4-carboxybutanamido)camptothecin, reference compound], the “Residual ratio of the glutamic acid derivative” value in data set [1] (setting [7]) is given as 99%. Take `CCc1c2c(nc3ccc(O)cc13)-c1cc3c(c(=O)n1C2)COC(=O)[C@]3(O)CC` [EHC, 7-ethyl-10-hydroxycamptothecin, reference compound]: the results for the “Cell proliferation inhibitory activity” value in data set [2] (0.01 μM) and in data set [4] (0.01 μM) were 26% and 27.7%, respectively. Also, the “Effect of GGT inhibitor on cell proliferation suppressive activity” value in data set [3] (compound 0.0001 to 1 μM) was “did not affect the cell proliferation suppressive activity”. With `CCc1c2c(nc3ccc(OC(=O)OCc4ccc(NC(=O)CC[C@H](N)C(=O)O)cc4)cc13)-c1cc3c(c(=O)n1C2)COC(=O)[C@]3(O)CC` [Synthesis Example 2, (((4-((S)-4-amino-4-carboxybutanamido)benzyl)oxy)carbonyl)-10-oxy-7-ethylcamptothecin], the “Residual ratio of the glutamic acid derivative in PBS” value in data set [5] (after 3.5 hours) turned out to be 52%. For `CC[C@@]1(OC(=O)OCc2ccc(NC(=O)CC[C@H](N)C(=O)O)cc2)C(=O)OCc2c1cc1n(c2=O)Cc2cc3ccccc3nc2-1` [Synthesis Example 3, (((4-((S)-4-amino-4-carboxybutanamido)benzyl)oxy)carbonyl)camptothecin], the “Residual ratio of the glutamic acid derivative in PBS” value in data set [5] (after 3 hours) is 74%. Turning to `COc1cccc2c1C(=O)c1c(O)c3c(c(O)c1C2=O)CC(O)(C(=O)CO)CC3OC1CC(NC(=O)OCc2ccc(NC(=O)CCC(N)C(=O)O)cc2)C(O)C(C)O1` [Synthesis Example 4, (((4-((S)-4-amino-4-carboxybutanamido)benzyl)oxy)carbonyl)epirubicin], the “Residual ratio of the glutamic acid derivative” value in data set [1] (setting [7]) stood at 5%. Take `N[C@@H](CCC(=O)Nc1ccc(COC(=O)Nc2ccn([C@@H]3O[C@H](CO)C(O)[C@H]3O)c(=O)n2)cc1)C(=O)O` (stereo partly drawn) [Synthesis Example 5, (((4-((S)-4-amino-4-carboxybutanamido)benzyl)oxy)carbonyl)cytarabine]: the “Residual ratio of the glutamic acid derivative” value in data set [1] (after 6.5 hours, 1 mM PBS solution + 2 U/mL GGT solution) was found to be 34%. For the molecule `COc1cccc2c1C(=O)c1c(O)c3c(c(O)c1C2=O)C[C@@](O)(C(=O)CO)C[C@@H]3O[C@H]1C[C@H](N)[C@H](O)[C@H](C)O1` [doxorubicin hydrochloride, reference compound], the “Toxicity (death of mice)” value in data set [6] is “the mice died after the second administration due to toxicity”.

In the case of `COc1cccc2c1C(=O)c1c(O)c3c(c(O)c1C2=O)C[C@@](O)(C(=O)CO)C[C@@H]3O[C@H]1C[C@H](N)[C@H](O)[C@H](C)O1` [doxorubicin, reference compound], the inhibition at 10 µM in data set [2] (setting [8]) and in data set [4] (setting [8]) was 77% throughout. Moreover, the “Effect of GGT inhibitor on cell proliferation suppressive activity” value in data set [3] (compound 0.039 to 10 μM) is on record as “did not affect the cell proliferation suppressive activity”.
